Results taken from patent publication US20170190671A1, “BIS(ARYL)CATECHOL DERIVATIVES AS HERBICIDES” (E I DU PONT DE NEMOURS AND COMPANY, priority 2014, published 2017).

Assays:
Assay type in all cases: in vivo
[1] = tested on: blackgrass (Alopecurus myosuroides); assay: Test A postemergence; settings: Alopecurus myosuroides, post-emergence, 240 h, 0 to 100 scale, read-out: Plant response rating, Blackgrass
In short: (§1)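 Visual injury scored 0–100 (100 = complete control) against untreated controls about 10 days after treatment in a greenhouse. Test chemicals, formulated with surfactant in non-phytotoxic solvent, were sprayed on soil preemergence or on 2-10 cm, one- to two-leaf plants postemergence.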

[2] = tested on: wheat (Triticum aestivum); assay: Test A postemergence; settings: Triticum aestivum, post-emergence, 240 h, 0 to 100 scale, read-out: Plant response rating, Wheat
In short: as §1

[3] = tested on: Italian ryegrass (Lolium multiflorum); assay: Test A postemergence; settings: Lolium multiflorum, post-emergence, 240 h, 0 to 100 scale, read-out: Plant response rating, Ryegrass, Italian
In short: as §1

corn (Zea mays) = assay: Test A postemergence; settings: Zea mays, post-emergence, 240 h, 0 to 100 scale
In short: as §1

[4] = tested on: galium (catchweed bedstraw, Galium aparine); assay: Test A postemergence; settings: Galium, post-emergence, 240 h, 0 to 100 scale, read-out: Plant response rating, Galium
In short: as §1

[5] = tested on: pigweed (Amaranthus retroflexus); assay: Test A postemergence; settings: Amaranthus retroflexus, post-emergence, 240 h, 0 to 100 scale, read-out: Plant response rating, Pigweed
In short: as §1

[6] = tested on: barnyardgrass (Echinochloa crus-galli); assay: Test A postemergence; settings: Echinochloa crus-galli, post-emergence, 240 h, 0 to 100 scale, read-out: Plant response rating, Barnyardgrass
In short: as §1

kochia (Kochia scoparia) [7] = assay: Test A postemergence; settings: Bassia scoparia, post-emergence, 240 h, 0 to 100 scale, read-out: Plant response rating, Kochia
In short: as §1

[8] = tested on: giant foxtail (Setaria faberii); assay: Test A postemergence; settings: Setaria faberi, post-emergence, 240 h, 0 to 100 scale, read-out: Plant response rating, Foxtail, Giant
In short: as §1

[9] = tested on: ragweed (common ragweed, Ambrosia elatior); assay: Test A postemergence; settings: Ambrosia artemisiifolia, post-emergence, 240 h, 0 to 100 scale, read-out: Plant response rating, Ragweed
In short: as §1

[10] = tested on: barnyardgrass (Echinochloa crus-galli); assay: Test B flooded paddy; settings: Echinochloa crus-galli, 336 h; 250 g ai/ha, Flood, 13 to 15 days, scale 0 (no effect) to 100 (complete control); read-out: Plant response rating, Barnyardgrass
In short: (§2)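 Pots were flooded to 3 cm above the soil surface at treatment, compound applied directly to the paddy water, and that depth held throughout. Plants were kept in a greenhouse for 13 to 15 days, then visually rated against untreated controls.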

[11] = tested on: sedge, umbrella (small-flower umbrella sedge, Cyperus difformis); assay: Test B flooded paddy; settings: Cyperus difformis, 336 h; 250 g ai/ha, Flood, 13 to 15 days, scale 0 (no effect) to 100 (complete control); read-out: Plant response rating, Sedge, Umbrella
In short: as §2

[12] = tested on: ducksalad (Heteranthera limosa); assay: Test B flooded paddy; settings: Heteranthera limosa, 336 h; 250 g ai/ha, Flood, 13 to 15 days, scale 0 (no effect) to 100 (complete control); read-out: Plant response rating, Ducksalad
In short: as §2

rice (Oryza sativa) = assay: Test B flooded paddy; settings: Oryza sativa, 336 h; 250 g ai/ha, Flood, 13 to 15 days, scale 0 (no effect) to 100 (complete control); read-out: Plant response rating, Rice
In short: as §2

[13] = tested on: Italian ryegrass (Lolium multiflorum); assay: Test C preemergence; settings: Lolium multiflorum, pre-emergence, 336 h, scale 0 to 100, read-out: Plant response rating, Ryegrass, Italian
In short: (§3)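 Seeds in loam-sand soil were treated preemergence, and plants at the 1- to 4-leaf stage (2-18 cm) in peat-based medium were sprayed postemergence, with test chemicals in a non-phytotoxic solvent containing surfactant. After 13-15 days in a greenhouse, response was rated visually against controls from 0 (no effect) to 100 (complete control).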

[14] = tested on: waterhemp (common waterhemp, Amaranthus rudis); assay: Test C preemergence; settings: Amaranthus tuberculatus, pre-emergence, scale 0 to 100, read-out: Plant response rating, Waterhemp
In short: as §3

[15] = tested on: Italian ryegrass (Lolium multiflorum); assay: Test A preemergence; settings: Lolium multiflorum, pre-emergence, 240 h
In short: as §1

[16] = tested on: pigweed (Amaranthus retroflexus); assay: Test A preemergence; settings: Amaranthus retroflexus, pre-emergence, 240 h
In short: as §1

[17] = tested on: barnyardgrass (Echinochloa crus-galli); assay: Test A preemergence; settings: Echinochloa crus-galli, pre-emergence, 240 h
In short: as §1

kochia (Kochia scoparia) [18] = assay: Test A preemergence; settings: Bassia scoparia, pre-emergence, 240 h
In short: as §1

[19] = tested on: giant foxtail (Setaria faberii); assay: Test A preemergence; settings: Setaria faberi, pre-emergence, 240 h
In short: as §1

[20] = tested on: ragweed (common ragweed, Ambrosia elatior); assay: Test A preemergence; settings: Ambrosia artemisiifolia, pre-emergence, 240 h
In short: as §1

## FC(F)c1cccc(Oc2ncc(Cl)cn2)c1Oc1ncc(Cl)cn1 [Compound 46, 2,2′-[[3-(difluoromethyl)-1,2-phenylene]bis(oxy)]bis[5-chloropyrimidine]]
[1]; 125 g ai/ha
  pest or weed control at 125 g/ha: 90%
[1]; 500 g ai/ha
  pest or weed control at 500 g/ha: 100%
[2]; 125 g ai/ha
  plant injury at 125 g/ha: 50%
[2]; 500 g ai/ha
  plant injury at 500 g/ha: 100%
[3]; 125 g ai/ha
  pest or weed control at 125 g/ha: 90%
[3]; 500 g ai/ha
  pest or weed control at 500 g/ha: 100%
Corn (Zea mays); 125 g ai/ha
  Corn plant response rating (crop injury, 0 = no effect, 100 = complete kill) at 125 g/ha: 90%
Corn (Zea mays); 500 g ai/ha
  Corn plant response rating (crop injury, 0 = no effect, 100 = complete kill) at 500 g/ha: 100%
[4]; 125 g ai/ha
  pest or weed control at 125 g/ha: 100%
[4]; 500 g ai/ha
  pest or weed control at 500 g/ha: 100%
[5]; 125 g ai/ha
  pest or weed control at 125 g/ha: 100%
[5]; 500 g ai/ha
  pest or weed control at 500 g/ha: 100%
[6]; 125 g ai/ha
  pest or weed control at 125 g/ha: 90%
[6]; 500 g ai/ha
  pest or weed control at 500 g/ha: 100%
Kochia (Kochia scoparia) [7]; 125 g ai/ha
  pest or weed control at 125 g/ha: 100%
Kochia (Kochia scoparia) [7]; 500 g ai/ha
  pest or weed control at 500 g/ha: 60%
[8]; 125 g ai/ha
  pest or weed control at 125 g/ha: 90%
[8]; 500 g ai/ha
  pest or weed control at 500 g/ha: 100%
[9]; 125 g ai/ha
  pest or weed control at 125 g/ha: 100%
[9]; 500 g ai/ha
  pest or weed control at 500 g/ha: 100%
[10]
  pest or weed control at 250 g/ha: 0%
[11]
  pest or weed control at 250 g/ha: 65%
[12]
  pest or weed control at 250 g/ha: 80%
Rice (Oryza sativa)
  plant injury at 250 g/ha: 10%
[13]; 31 g ai/ha, preemergence
  pest or weed control at 31 g/ha: 25%
[13]; 62 g ai/ha, preemergence
  pest or weed control at 62 g/ha: 95%
[13]; 125 g ai/ha, preemergence
  pest or weed control at 125 g/ha: 100%
[13]; Preemergence, 16 g ai/ha
  pest or weed control at 16 g/ha: 0%
[14]; 31 g ai/ha, preemergence
  pest or weed control at 31 g/ha: 100%
[14]; 62 g ai/ha, preemergence
  pest or weed control at 62 g/ha: 100%
[14]; 125 g ai/ha, preemergence
  pest or weed control at 125 g/ha: 100%
[14]; Preemergence, 16 g ai/ha
  pest or weed control at 16 g/ha: 75%
[15]; 125 g ai/ha, 0 to 100 scale (0 no effect, 100 complete control), read-out: Ryegrass, Italian plant response rating
  pest or weed control at 125 g/ha: 30%
[15]; 500 g ai/ha, 0 to 100 scale, read-out: Plant response rating, Ryegrass, Italian
  pest or weed control at 500 g/ha: 80%
[16]; 125 g ai/ha, 0 to 100 scale (0 no effect, 100 complete control), read-out: Pigweed plant response rating
  pest or weed control at 125 g/ha: 100%
[16]; 500 g ai/ha, 0 to 100 scale, read-out: Plant response rating, Pigweed
  pest or weed control at 500 g/ha: 100%
[17]; 125 g ai/ha, 0 to 100 scale (0 no effect, 100 complete control), read-out: Barnyardgrass plant response rating
  pest or weed control at 125 g/ha: 90%
[17]; 500 g ai/ha, 0 to 100 scale, read-out: Plant response rating, Barnyardgrass
  pest or weed control at 500 g/ha: 100%
Kochia (Kochia scoparia) [18]; 125 g ai/ha, 0 to 100 scale (0 no effect, 100 complete control), read-out: Kochia plant response rating
  pest or weed control at 125 g/ha: 100%
Kochia (Kochia scoparia) [18]; 500 g ai/ha, 0 to 100 scale, read-out: Plant response rating, Kochia
  pest or weed control at 500 g/ha: 100%
[19]; 125 g ai/ha, 0 to 100 scale (0 no effect, 100 complete control), read-out: Foxtail, Giant plant response rating
  pest or weed control at 125 g/ha: 100%
[19]; 500 g ai/ha, 0 to 100 scale, read-out: Plant response rating, Foxtail, Giant
  pest or weed control at 500 g/ha: 100%
[20]; 125 g ai/ha, 0 to 100 scale (0 no effect, 100 complete control), read-out: Ragweed plant response rating
  pest or weed control at 125 g/ha: 90%
[20]; 500 g ai/ha, 0 to 100 scale, read-out: Plant response rating, Ragweed
  pest or weed control at 500 g/ha: 100%
